Data set [1] concerns BALB/c mice. The experiment in a line: MSU crystal-induced inflammatory cell infiltration into six-day air pouch (gout model). The format is in vivo, mouse. Particulars: orally dosed; FIG. 15. Here is the method:
Animals: BALB/c mice, male, 5-6 weeks, weighing approximately 19-23 g were used. Animals were housed and maintained according to IACUC protocols.
Air Pouch: Each mouse was anesthetized and injected with 6 mL of sterile air subcutaneously (SC) at the nape of the neck and the injection site was sealed with flexible colloidon to create an air pouch. Three days later, the mice were injected with 3 mL of sterile air SC at the same site and the injection site was sealed with flexible colloidon.
Preparation of MSU Crystals: 10 g uric acid (Sigma, Cat. U2625, lot BCBM5312V) was heated to 60° C. in 2 L purified water, containing 5.8 mL 10 N NaOH. The pH of the heated mixture was adjusted to 8.9, yielding a clear solution which was stored overnight at 4-8° C. to allow MSU crystals to form and precipitate. The MSU crystals were washed three times with 1 L purified water and stored at 37° C. to dry.
Formulation of Degrader: 0.5% CMC/0.25% Tween-80 was prepared by dissolving 0.5 g carboxymethylcellulose (Sigma, Cat. C4888, lot 101K0185) in 100 mL de-ionized water followed by the addition of 0.25 mL Tween-80 (Sigma, Cat. P1754, lot 073K0064). […]
Termination, Cell Collection and Data: Four hours after MSU/saline injection, the mice were anesthetized and humanely exsanguinated. […] The air pouch was gently massaged, the contents immediately removed, and the exudate volume recorded. […]

Data set [2] relates to OCI-LY10. As to the kind of experiment: CTG Cell Viability Assay - OCI-LY10. The format is cell-based, human. In short, it runs like this: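 Viability read by CellTiter-Glo luminescence after 4 days at 37° C under 5% CO2 with compound (top 10 μM final, 1:3 steps, 9 doses, DMSO 0.2%). Three-parameter logistic fit gave IC50.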
The target of data set [3] is IRAK4 (Mus musculus (Mouse), UniProt Q8R4K2). The experiment in a line: In vivo IRAK4 degradation in BALB/c mouse spleen (air pouch study). The conditions noted are these: three PO doses; FIG. 8. The procedure: Dosing of Degrader: Mice were dosed orally at 10 mL/kg with suspensions above, giving 10 mg/kg, 30 mg/kg and 100 mg/kg final dose levels, three times at 8-hour intervals.
Termination, Cell Collection and Data: Four hours after MSU/saline injection, the mice were anesthetized and humanely exsanguinated. The spleens were removed, halved, flash frozen in labeled Eppendorf tubes in liquid nitrogen, and stored at −80° C. for determination of IRAK4 using targeted MS/MS with labeled peptide internal standard. Immediately after the bleed, 3 ml 10 U/mL heparinized saline was injected into the air pouch. The air pouch was gently massaged, the contents immediately removed, and the exudate volume recorded. After allowing the MSU crystals to settle out for fifteen minutes in an ice bath, an aliquot of the exudate was transferred to labeled Eppendorf tubes for differential white blood cell counts, including neutrophils.

In data set [4] the test system is cytokines induced by TLR stimuli. As to the kind of experiment: Human whole blood cytokine release assays. The format is cell-based. The conditions noted are these: compared with IRAK4 inhibition with PF-06550833, FIG. 16. Here is the method:
Fresh human whole blood was collected in Na Heparin tubes and received from […] same day as collection. 200 uL of whole blood was aliquoted per well into a 96 well plate. Whole blood was pre-incubated with compounds overnight at 37° C., 5% CO2. Following compound incubation, samples were stimulated with […] (invivogen #tlrl-r848), LPS 10 ng/mL (Sigma #L2637) or IL-1β 25 ng/mL (R&D systems 201-LB) and incubated for an additional 5 hours. At the end of the assay, blood was spun down for 15 min at 4° C. and plasma was collected and immediately stored at −80° C. Cytokine and chemokine levels were measured by custom ordered U-plex MSD panels (panel 1: IFNy, IL-10, IL-1β, IL-6, IL-8, TNFα) and (panel 2: IP-10, MIP1-α, MIP-1β, IL-12/IL-23p40, GROα).

A short description of data set [5]: Oral exposure / bioavailability of I-75. The format is in vivo, rat, dog, and monkey. Particulars: FIG. 11.
Data set [6] relates to OCI-LY19. As to the kind of experiment: OCI-LY19 viability, CTG. The data set is classed as cell-based. Particulars: Homo sapiens, OCI-LY19.

pIC50: −log10 of the molar value. Like-named read-outs stand apart in the source and are kept apart here.

Usually pIC50 stands for the IC50 on a negative log10 scale, so that one unit is a factor of ten.

Chain of IRAK4 (Q8R4K2 whole entry): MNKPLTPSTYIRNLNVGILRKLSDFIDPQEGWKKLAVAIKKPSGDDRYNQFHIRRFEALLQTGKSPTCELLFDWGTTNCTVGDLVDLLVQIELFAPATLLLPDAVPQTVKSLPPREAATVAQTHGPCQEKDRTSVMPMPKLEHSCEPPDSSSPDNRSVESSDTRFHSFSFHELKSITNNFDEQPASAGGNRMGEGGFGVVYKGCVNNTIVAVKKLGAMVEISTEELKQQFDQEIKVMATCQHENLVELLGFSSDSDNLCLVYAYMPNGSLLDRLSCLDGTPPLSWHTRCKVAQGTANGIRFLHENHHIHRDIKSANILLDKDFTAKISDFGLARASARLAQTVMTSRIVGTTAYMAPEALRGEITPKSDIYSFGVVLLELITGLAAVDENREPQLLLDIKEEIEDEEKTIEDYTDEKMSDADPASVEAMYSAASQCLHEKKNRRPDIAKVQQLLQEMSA

For `CN(CCCOCCCc1cccc2c1n(C)c(=O)n2C1CCC(=O)NC1=O)C[C@H]1CC[C@H](n2cc(NC(=O)c3coc(-c4ccnc(NCC5CC5)c4)n3)c(C(F)F)n2)CC1` (mixture of isomers) [I-30, 2-[2-(Cyclopropylmethylamino)-4-pyridyl]-N-[3-(difluoromethyl)-1-[4-[[3-[3-[1-(2,6-dioxo-3-piperidyl)-3-methyl-2-oxo-benzimidazol-4-yl]propoxy]propyl-methyl-amino]methyl]cyclohexyl]pyrazol-4-yl] oxazole-4-carboxamide], the IL-1β in plasma result in data set [1] is on record as “dose-dependent decrease in IL-1β”. Also, the “cytotoxicity in OCI-LY10 lymphoma line” value in data set [2] (FIG. 5) is reported as “cytotoxic”. The pIC50 in data set [2] (Homo sapiens, OCI-Ly10, 96 h, OCI-LY10, 4 days, read-out: CTG Cell Viability Assay - OCI-LY10: Average external-IC50) is 6.30 to 7.00. Further, in data set [3], the “IRAK4 in BALB/c mouse spleen” value is given as “in vivo degradation of IRAK4”.

Regarding `CN(C[C@H]1CC[C@H](n2cc(NC(=O)c3coc(-c4ccnc(NCC5CC5)c4)n3)c(C(F)F)n2)CC1)C1CCN(Cc2cccc3c2n(C)c(=O)n3C2CCC(=O)NC2=O)CC1` (stereo partly drawn) [I-75, 2-(2-((cyclopropylmethyl)amino)pyridin-4-yl)-N-(3-(difluoromethyl)-1-((1r,4r)-4-(((1-((1-(2,6-dioxopiperidin-3-yl)-3-methyl-2-oxo-2,3-dihydro-1H-benzo[d]imidazol-4-yl)methyl)piperidin-4-yl)(methyl)amino)methyl)cyclohexyl)-1H-pyrazol-4-yl)oxazole-4-carboxamide], the “range of cytokines inhibited, induced by different TLR stimuli” value in data set [4] is “inhibits a broader range of cytokines”. Also, the oral bioavailability result in data set [5] (rat, dog, and monkey) is listed as “oral bioavailable”. Besides, the “oral exposure in plasma” value in data set [5] (up to 300 mg/kg) is on record as “dose proportional oral exposure in plasma”. The negative-log IC50 (pIC50) in data set [6] (MYD88 WT Lines, read-out: OCI-LY19 Viability, CTG IC50) was 6.32; in data set [6] (MYD88 WT, read-out: OCI-LY19 CTG IC50), 6.32.
